Results on 1 compound are retold here after patent publication US20250041286A1, “CANCER TREATMENT USING KETOTIFEN IN COMBINATION WITH A CHECKPOINT INHIBITOR” (Materia Therapeutics Inc., priority 2021, published 2025).

The subject of assay [1] is K7M2wt tumors. Description: qPCR mRNA expression levels in tumors. Type of assay: in vivo, mouse. The following applies: 10 mg/kg ketotifen, compared with the effect in MCA205. How it is done: Total RNA was isolated from breast tumors according to the standard Trizol-based protocol (Invitrogen), and cDNA synthesis was performed using reverse transcriptase III (RT-III) enzyme and random hexamers (Invitrogen). Real-time polymerase chain reaction was performed using Sybr Fast Universal Master Mix (KAPA). Reactions were performed using a CFX-96 real-time PCR detection system (BioRad) at the following conditions: 95° C. for 2 minutes, 95° C. for 2 seconds, 60° C. for 20 seconds, 60° C. for 1 second, steps 2-4 for 39 cycles. Real-time PCR analysis and calculation of changes in gene expression between compared groups was performed using the ΔΔ^Ct method. Relative gene expression was normalized based on the expression of β-actin. For qPCR analysis, 3-5 biological samples were used per treatment and 3 technical replicates for each sample.
mRNA expression levels were evaluated in both mouse sarcoma models by qPCR, as described above.

Assay [2] deals with K7M2wt tumors. Description: Ultrasound shear wave elastography of tumor stiffness. Particulars: 10 mg/kg daily ketotifen. Type of assay: in vivo, mouse. The protocol: (§1) The mechanotherapeutic potential of ketotifen in reducing matrix stiffness was primarily assessed non-invasively and longitudinally using ultrasound elastography. Briefly, assessment of tumor elastic modulus was […] via shear wave elastography using a Philips EPIQ Elite Ultrasound scanner with an eL18-4 linear array, approved for clinical scanning was performed as described in previous study. Elastic modulus values of the areas of the region of interest (ROI) with the highest shear wave quality were obtained. The elastic modulus value presented is the average within the tumor region. Shear wave imaging of MCA205 tumors was performed prior to ketotifen treatment on day 7, to determine baseline level of tumor stiffness, after three days of treatment (day 11), and on the last day of treatment just before tumor removal (day 15). Ultrasound imaging of K7M2wt tumors was performed on day 24, 28, and 31. The effect of ketotifen on chemo-immunotherapy combination with regards to MCA205 tissue elasticity was assessed on day 7 before the first cycle of doxorubicin+anti-PD-L1 treatment, one day after second cycle (day 11) and two days after the last cycle (day 15). Ultrasound imaging of K7M2wt tumors was performed on day 22 (i.e., four days post daily ketotifen and before first cycle of combination treatment) and upon completion of treatment (day 32).

A further assay relates to MCA205 tumors. The assay is described as above. Type of assay: in vivo, mouse. Particulars: 10 mg/kg daily ketotifen, dose that reduced stiffness the most. How it is done: as §1
In assay [3] the test system is K7M2wt tumors. Nature of the assay: Hypoxia study, pimonidazole adduct immunofluorescence. In kind it is in vivo, mouse. Particulars: 10 mg/kg ketotifen. The protocol:
Mice bearing orthotopic MCA205 or K7M2wt sarcoma tumors were injected (intraperitoneal) with 60 mg/kg of pimonidazole HCl at 2 hours prior to tumor removal. Tumors were removed, washed twice in 1×PBS for 10 minutes and incubated with 4% PFA overnight at 4° C. The fixative was aspirated, and samples were washed twice in 1×PBS for 10 min. Tissue samples were dehydrated in successive ethanol steps and xylene followed by paraffin embedding. Serial sections ([…]) of paraffin-embedded tissues were produced using the microtome (Accu-Cut SRM 200 Rotary Microtome, SAKURA), flattened out into water, and allowed to dry overnight at 37° C. Sections were then deparaffinized and rehydrated as routinely processed for histology. Slides were microwaved in TriSodium Citrate, blocked in serum solution, and incubated with mouse anti-pimonidazole RED 549 conjugate antibody (HP7-100Kit, 1:100) overnight at 4° C. The next day slides were washed, nuclei were stained with DAPI, and tissue sections were mounted. Immunofluorescence images of the slides were taken (FIG. 1A), and hypoxic area fraction across different treatment groups was normalized to DAPI staining.
Immunofluorescence staining for Ki67 and CD8, performed as described above, confirmed the activation status of recruited CD8^+ T cells in osteosarcoma tumors (K7M2wt tumors) (FIGS. 9C-9D). […]

The test system of a further assay is murine MC/9 MCs. Nature of the assay: MC/9 - NIH3T3 transwell co-culture, mast cell degranulation by β-hexosaminidase release. In kind it is cell-based. How it is done:
Given that both MCs and fibroblasts are present in the TME, the consequences of MC activation on myofibroblasts was explored using a co-culture assay in which murine MC/9 MCs and NIH3T3 myofibroblasts were separated by a transwell chamber with micropores that only allowed chemical communication (FIG. 13A). In this system, degranulation efficiency was determined by measuring the concentration of β-hexosaminidase (β-hex) in the supernatant. MC degranulation was induced through exposure to compound 48/80 (C48/80), which binds to the MRGPRB2 receptor (the orthologue of the human G-protein-coupled receptor MRGPRX2). […] Co-cultures treated with a vehicle control and Triton X-100 were used as internal assay control to evaluate background and maximum β-hex release, respectively. Transforming growth factor (TGF)-β1 was used as a fibroblast activator due to its capacity to induce a myofibroblast phenotype of the NIH3T3 cells. MC/9 cells were cultivated with NIH3T3 cells for 24 hours and then treated with either ketotifen or TGFβ for additional 24 hours in low serum medium, followed by a 30 minute sensitization with C48/80.

Structures are written as SMILES. Entries after “also recorded” stand apart in the source; their conditions may differ.

As for `CN1CCC(=C2c3ccccc3CC(=O)c3sccc32)CC1` [ketotifen], the “mRNA levels of Col1A1, CTGF, Has2, Has3” value in the assay on K7M2wt tumors [1] is reported as “A similar effect was observed”. The “tissue stiffness (Young's modulus)” value with K7M2wt tumors [2] was “similarly benefited”. Moreover, the “Young's modulus (tissue stiffness)” value with MCA205 tumors was determined as 20 kPa. Besides, the “pimonidazole positive fraction (hypoxia)” value in the assay on K7M2wt tumors [3] was “significantly reduced; also recorded: alleviated hypoxia”. Besides, the “MC degranulation (β-hex release)” value in the assay with murine MC/9 MCs (24 hours treatment, then 30 minute sensitization with C48/80) is recorded as “inhibits degranulation in a dose-dependent manner”. The “reduction in β-hex release compared to C48/80 treatment” value with murine MC/9 MCs (ketotifen 100 μg/ml) is on record as “more than 50%”.
